# Like-named read-outs stand apart in the source and are kept apart here. Starred links: 1 amine or outer side, 2 acyl side, 3 side chain; linkers in the order of their positions; H or OH if unused. Positions of bridges follow the written chain, without caps; N, C: chain ends. Non-standard residues stand in square brackets, D forms with d. Residues, ends and D or L forms follow the SMILES beside them. X5 = CC(C)CCCCCCC[C@H](CC(=O)[*:1])O[*:2]; X2 = CCCCCCC[C@H](CC(=O)[*:1])O[*:2]; Val(3-OH) = CC(C)(O)[C@H](N)C(=O)O; X1 = C/C=C(/N[*:1])C(=O)[*:2]; Dab = NCC[C@H](N)C(=O)O; Dap = NC[C@H](N)C(=O)O
# Assays:
# [1] = tested on: red blood cells from heparinized human blood; experiment: in vitro; format: cell-based; details: 45 min, 100 µM, pH 7.4
# Protocol: positive control (Bortezomib) SI of <5%. The half maximal inhibitory concentration (IC50) was determined from log concentration-effect curves using non-linear regression analysis.
# Frequency of resistance (FoR). For the determination of the FoR, the MIC of compound 2 was first evaluated on solid MH-agar medium prepared in 35 mm diameter plates. Each plate contained 4 mL agar with the appropriate amount of compound. Bacterial cultures were grown and prepared as described for the MIC assay. 13 µL of bacterial culture diluted to 0.5 MacFarland was inoculated into 1 mL 0.9% NaCl resulting in ~2 × 10^6 CFU/mL. 5 µL of this bacterial suspension was spotted onto the surface of each agar plate (~10^4 CFU/spot). Plates were sealed and incubated at 37°C for 18–20 hours. Agar MIC was recorded according to CLSI guidelines as the lowest concentration of […]
# faint haze caused by the inoculum. Then 9 cm plates were prepared with 25 mL MHII agar medium containing 4 × or 8 × solid MIC concentrations of test compounds and seeded with 100 µL of a bacterial preparation, concentrated by centrifugation from overnight cultures and resuspended in 0.9% NaCl, corresponding to 108 CFU and 109 CFU per plate, and spread on the agar using 4–5 glass beads of 4 mm diameter. Since CFU were evaluated using the McFarland turbidity standard, the exact CFU number plated was evaluated by plating of serial dilutions of each inoculum preparation on MHII agar plates. Plates were incubated at 37°C and colonies were counted at 24 h and 48 h post-plating. The frequencies of resistance were then calculated by counting the number of validated resistant colonies growing on antibiotic preparations divided by the evaluated number of CFU in the inoculum.
# Hemolysis assay. Compounds were evaluated for hemolytic activity using red blood cells from heparinized human blood. Red blood cells (RBC) were washed three times in Tyrode buffer (130 mM NaCl, 4 mM KCl, 2.8 mM NaOAc, 1 mM MgCl2, 10 mM HEPES, 10 mM glucose, 1 mM CaCl2, adjusted to pH 7.4) and resuspended in the same buffer. Final concentrations in the hemolysis assay were: 100 µM compound, 1% DMSO, and 50% RBC, assayed in a 200 µL volume in a microtiter plate. The mixture was incubated at 37 °C for 45 min with shaking (250 rpm). After incubation, RBCs were removed by centrifugation (1000 × g for 10 min), 100 µL clear plasma was transferred to a fresh microtiter plate, and the amount of hemoglobin measured using a spectrophotometer at 540 nm. The […]
# complete lysis control contained 2% Triton X-100 (in Tyrode buffer) instead of compound; the negative control contained Tyrode buffer but no compound. Percent hemolysis was calculated as:
# [Abs compound] - [Abs negative control] / [Abs complete lysis control] - [Abs negative control] ×
# 100. Values greater than 1% hemolysis at 100 µM were regarded as a red flag.
# Bacterial membrane permeabilization assay. Liposomes were manufactured and permeabilization assayed as described previously.8 Briefly, dry lipid films of E. coli polar lipid extract were formed on round-bottom flask walls. This was achieved by dissolving lipids in chloroform and evaporating the solvent under agitation and nitrogen gas flow, followed by incubation in vacuum chamber. Lipid films were re-suspended by 30 min stirring (E. coli) at 55°C in an aqueous solution of 100 mM 5(6)-carboxyfluorescein in 10 mM Tris buffer (set to pH 7.4 at 37°C). Suspensions were subjected to repeated extrusion through a 100 nm pore size polycarbonate membrane in order to reduce multilamellar structures and polydispersity. Un-trapped carboxyfluorescein was removed by gel filtration. Membrane permeability was measured by monitoring carboxyfluorescein efflux from the liposomes to the external low concentration environment, resulting in loss of self-quenching and an increased fluorescence signal. The 96-well plates were prepared with a 2-fold serial dilution of the samples in Tris buffer, as well as negative controls (background) and 0.16% Triton X-100 (maximum […]
# leakage). […]
# [2] = tested on: A. baumannii; experiment: MIC determined at the Public Health Agency of Sweden (EUCAST); format: cell-based; details: Acinetobacter baumannii
# Protocol: (§1) 10^8 CFU/mL) with turbidity assessed using a Sensititre Nephelometer (Trek Diagnostics Systems Ltd, UK). 50 µL of this bacterial suspension was transferred to 10 mL of MHII broth to give a final bacterial concentration ≅ 5 × 10^5 CFU/mL (acceptable range 3 – 7 × 10^5 CFU/mL). 50 µL of bacterial suspension was pipetted into each well (except the medium control well, where 50 µL MHII was pipetted). Final volume in each well was 100 µL. Plates were covered and incubated without shaking for 18-20 h at 35 °C ± 2 °C. MIC was read visually, as complete inhibition of growth by the unaided eye, using the medium-only wells as the control. Each compound was assayed at least in duplicate.
# (§2) Additionally, the MIC for compound 2 against clinical carbapenem-resistant strains of A. baumannii […]
# (§3) determined at the Public Health Agency of Sweden (according to EUCAST recommendations).
# (§4) In vitro Cytotoxicity Determination. In vitro cytotoxicity was determined by a fluorometric microculture cytotoxicity assay,7 based on hydrolysis of fluorescein diacetate to fluorescein by cells with intact plasma membranes. In short, HepG2 cells (hepatocellular carcinoma cells, ATCC), in Eagle's Minimum Essential Medium (ATCC) supplemented with 10 % fetal bovine serum, penicillin/streptomycin (100 U/100 µg/mL) and 2 mM L-glutamine, were seeded in 384-well assay plates at a density of 1000 cells/well. The cells were incubated over night at 37°C and compounds in 10 mM DMSO were added, to obtain final concentrations 64 µM – 0.25 µM in two-fold dilutions.
# (§5) After incubation for 72 h at 37°C, the cells were pelleted and washed. Fluorescein diacetate was added (1 µL, 0.5 mg/mL) and the fluorescence [485 nm(exc)/530 nm(em.)] was measured after 50 min at 37°C. Bortezomib (2 µM) was used as positive control and dose response testing of doxorubicin (top concentration 2 µM) was performed repeatedly to follow assay performance over time. Cytotoxicity was assessed after 72 h with cell survival presented as survival index (SI, %) defined as fluorescence in test wells in percent of control cultures with blank values subtracted.
# (§6) Criteria for a successful assay include a signal-to-noise ratio in control cultures >10, CV <30% and a 7 Lindhagen, E., Nygren, P., and Larsson, R. (2008) The fluorometric microculture cytotoxicity assay. Nat.
# [3] = tested on: E. coli; experiment: as above; format: cell-based; details: Escherichia coli
# Protocol: as §1, §2, §3, §4, §5, §6
# [4] = tested on: P. aeruginosa; experiment: as above; format: cell-based, Pseudomonas aeruginosa; details: for MIC: Pseudomonas aeruginosa, Public Health Agency of Sweden
# Protocol: as §1, §2, §3, §4, §5, §6
# [5] = Bacterial membrane permeabilization assay (carboxyfluorescein leakage from liposomes); format: biochemical; details: large unilamellar liposomes from E. coli phospholipid extract, 45 min, 37 °C
Structure (SMILES),Hemolysis (%) [1] [%],"MIC ([2]; CARBA, Public Health Agency of Sweden, read-out: MIC A. baumannii A219) [µg/mL]","MIC ([2]; CARBA, Public Health Agency of Sweden, read-out: MIC A. baumannii A250) [µg/mL]","MIC ([2]; summary in text over strains, strains not named, read-out: MIC carbapenem-resistant A. baumannii) [µg/mL]","MIC ([3]; ATCC25922, WT, Public Health Agency of Sweden, read-out: MIC E. coli ATCC25922) [µg/mL]","MIC ([3]; CARBA, Public Health Agency of Sweden, read-out: MIC E. coli EC4129) [µg/mL]","MIC ([3]; CARBA, Public Health Agency of Sweden, read-out: MIC E. coli EC4163) [µg/mL]","MIC ([3]; summary in text over strains, strains not named, read-out: MIC carbapenem-resistant E. coli) [µg/mL]","MIC ([4]; ATCC27853, WT, read-out: MIC P. aeruginosa ATCC27853) [µg/mL]","MIC ([4]; CARBA, read-out: MIC P. aeruginosa PS826) [µg/mL]","MIC ([4]; CARBA, read-out: MIC P. aeruginosa PS992) [µg/mL]","MIC carbapenem-resistant P. aeruginosa ([4]; summary in text over strains, strains not named) [µg/mL]",EC50 [5] [nM]
"C/C=C1/NC(=O)[C@H](CCN)NC(=O)[C@H](CC(C)C)NC(=O)[C@H](CN)NC(=O)C[C@@H](CCCCCCC)OC(=O)[C@H](CC(=O)O)NC(=O)[C@H](C(C)(C)O)NC(=O)[C@@H](Cc2ccccc2)NC(=O)[C@H](CN)NC(=O)[C@H]([C@@H](C)O)NC1=O [Compound 2, isopedopeptin B] ([Dap]L[Dab][X1]T[Dap][dF][Val(3-OH)]D; linker N-C via X2)",0.8,2,2,≥ 1,1,2,1,≥ 2,4,4,4,≥ 4,
"C/C=C1/NC(=O)[C@H](CCN)NC(=O)[C@H](CC(C)C)NC(=O)[C@H](CN)NC(=O)C[C@@H](CCCCCCCC(C)C)OC(=O)[C@H](CC(=O)O)NC(=O)[C@H](C(C)(C)O)NC(=O)[C@@H](Cc2ccccc2)NC(=O)[C@H](CN)NC(=O)[C@H]([C@@H](C)O)NC1=O [Compound 6, Isopedopeptin F] ([Dap]L[Dab][X1]T[Dap][dF][Val(3-OH)]D; linker N-C via X5)",,,,,,,,,,,,,2000
